Patent publication US20040138245A1, “Product comprising mikanolide, dihydromikanolide or an analogue thereof combine with another anti-cancer agent for therapeutic use in cancer treatment” (priority 2001, published 2004)
“And” between values parts separate entries of the source, which are not always exact repeats. Equal values may be shown once.

Test system: HT-29 (human colon cancer cells)
Assay: Measurement of cellular proliferation in vitro (WST1 colorimetric test, 120 hours)
Type: cell-based
Conditions: HT29 cells
Protocol: The cell line HT-29 (human colon cancer cells) was acquired from the American Tissue Culture Collection (Rockville, Md., USA).
The HT-29 cells (4000 cells/wells) are cultured on 96-well plates.
On day 0, these cells are seeded in 90 μl of Dulbecco's modified Eagle medium (Gibco-Brl, Cergy-Pontoise, France) completed with 10% of foetal calf serum inactivated by heating (Gibco-Brl, Cergy-Pontoise, France), 50000 units/l of penicillin and 50 mg/l of streptomycin (Gibco-Brl, Cergy-Pontoise, France), and 2 mM of glutamine (Gibco-Brl, Cergy-Pontoise, France).
The cells were treated simultaneously with concentrations of the compounds to be tested singly or in combination for 120 hours.
At the end of the of this period, quantification of the cellular proliferation is evaluated by colorimetric test based on the cleavage of the tetrazolium salt WST1 by the mitochondrial […] in the living cells leading to the formation of formazan (Boehringer Mannheim, Meylan, France). These tests are carried out four times with 6 determinations for each single product and for each combination tested. This allows determination of the number of living cells at the end of each treatment.

4-(2-bromophenyl)-1-(2-(1-((4-cyano-3-methoxy)phenylmethyl)imidazo-5-yl)-1-oxoethyl)-1,2-dihydro-8-fluoroimidazol[1,2a][1,4]-benzodiazepine [Example B4]
% of living cells (single compound at 5 μM): 93% and 78%

C[C@H]1C(=O)O[C@H]2C[C@]3(C)O[C@@H]3[C@@H]3O[C@@H]3C3=C[C@@H](OC3=O)[C@@H]21 [Example A1, dihydromikanolide]
% of living cells (single compound at 5 μg/ml): 61% and 64%

[NH2][Pt]([NH2])([Cl])[Cl] [Example B1, cisplatin, reference compound]
% of living cells (single compound at 6.25 μM): 48%

NC(CS)C(=O)N1CCn2cc(-c3ccccc3)nc2C1CC1CCCCC1 (stereo not drawn) [Example B2, 7-(2-amino-1-oxo-3-thiopropyl)-8-(cyclohexylmethyl)-2-phenyl-5,6,7,8-tetrahydroimidazo[1,2a]pyrazine]
% of living cells (single compound at 25 μM): 37% and 64%

CC(C)[C@H](CO)Nc1nc(NCc2cccnc2)n2ncc(Br)c2n1 [Example B3, 8-bromo-2-(1R-isopropyl-2-hydroxyethylamino)-4-(3-pyridylmethylamino)pyrazolo[1,5-a]-1,3,5-triazine]
% of living cells (single compound at 100 nM): 104%

hydrochloride of 8-(dimethylamino)-3,10a-dimethyl-2,6-dioxodecahydro-4,7-methenofuro[3,2-c]oxireno[f]oxacycloundecin-9-yl 2-naphthylcarbamate [Example A2]
% of living cells (single compound at 5 μM): 67% and 72% and 55%
